ChEMBL document CHEMBL1255175, “Synthesis, antimicrobial, and mosquito larvicidal activity of 1-aryl-4-methyl-3,6-bis-(5-methylisoxazol-3-yl)-2-thioxo-2,3,6,10b-tetrahydro-1H-pyrimido[5,4-c]quinolin-5-ones” (2010)
In brackets after ≈: the same amount, converted by molar mass.

Legend:
Assay type in all cases: functional
[1] = test system: Rhizopus arrhizus; assay: Antifungal activity against Rhizopus oryzae MTCC 262 at 100 ug/ml; conditions: read-out: DIZ
[2] = test system: Fusarium verticillioides; assay: Antifungal activity against Fusarium moniliforme MTCC 1848 at 100 ug/ml; conditions: read-out: DIZ
[3] = Antifungal activity against Chrysosporium tropicum MTCC 2821 at 100 ug/ml
[4] = test system: Aspergillus niger; assay: Antifungal activity against Aspergillus niger MTCC 282 at 100 ug/ml; conditions: read-out: DIZ
[5] = test system: Curvularia lunata; assay: Antifungal activity against Curvularia lunata MTCC 2030 at 100 ug/ml; conditions: read-out: DIZ
[6] = test system: Lysinibacillus sphaericus; assay: Antimicrobial activity against Bacillus sphaericus MTCC 511
[7] = test system: Chromobacterium violaceum; assay: Antimicrobial activity against Chromobacterium violaceum MTCC 2656
[8] = test system: Bacillus subtilis; assay: Antimicrobial activity against Bacillus subtilis MTCC 441
[9] = test system: Pseudomonas aeruginosa; assay: Antimicrobial activity against Pseudomonas aeruginosa MTCC 741
[10] = test system: Klebsiella aerogenes; assay: Antimicrobial activity against Klebsiella aerogenes MTCC 39
[11] = test system: Rhizopus arrhizus; assay: Antifungal activity against Rhizopus oryzae MTCC 262 at 30 ug/ml; conditions: read-out: DIZ
[12] = test system: Aspergillus niger; assay: Antifungal activity against Aspergillus niger MTCC 282 at 30 ug/ml; conditions: read-out: DIZ
[13] = test system: Staphylococcus aureus; assay: Antimicrobial activity against Staphylococcus aureus MTCC 96
[14] = test system: Fusarium verticillioides; assay: Antifungal activity against Fusarium moniliforme MTCC 1848 at 30 ug/ml; conditions: read-out: DIZ
[15] = test system: Culex quinquefasciatus; assay: Insecticidal activity against Culex quinquefasciatus 4th instar larvae; conditions: for LC50: Culex quinquefasciatus
[16] = Antifungal activity against Chrysosporium tropicum MTCC 2821 at 30 ug/ml
[17] = test system: Curvularia lunata; assay: Antifungal activity against Curvularia lunata MTCC 2030 at 30 ug/ml; conditions: read-out: DIZ

## Clc1ccccc1C(c1ccccc1)(c1ccccc1)n1ccnc1 [CLOTRIMAZOLE]
[1]
  zone of inhibition at 100 µg/mL: 33 mm
[2]
  zone of inhibition at 100 µg/mL: 25 mm
[3]
  inhibition zone (IZ): 30 mm
[4]
  zone of inhibition at 100 µg/mL: 26 mm
[5]
  zone of inhibition at 100 µg/mL: 35 mm

## O=C(O)c1cn(C2CC2)c2cc(N3CCNCC3)c(F)cc2c1=O [CIPROFLOXACIN]
[6]
  MIC: 20 µg/mL (≈ 60.4 µM)
[7]
  MIC: 25 µg/mL (≈ 75.4 µM)
[8]
  MIC: 20 µg/mL (≈ 60.4 µM)
[9]
  MIC: 30 µg/mL (≈ 90.5 µM)

## CC1=C2C(=O)N(c3cc(C)on3)c3ccccc3C2N(c2ccccc2)C(=S)N1c1cc(C)on1 (stereo not given)
[1]
  zone of inhibition at 100 µg/mL: 50 mm
[2]
  zone of inhibition at 100 µg/mL: 45 mm
[6]
  MIC: 15 µg/mL (≈ 31 µM)
[10]
  MIC: 13 µg/mL (≈ 26.9 µM)
[7]
  MIC: 18 µg/mL (≈ 37.2 µM)
[11]
  zone of inhibition at 30 µg/mL: 40 mm
[12]
  zone of inhibition at 30 µg/mL: 25 mm
[8]
  MIC: 19 µg/mL (≈ 39.3 µM)
[3]
  inhibition zone (IZ): 45 mm
[13]
  MIC: 15 µg/mL (≈ 31 µM)
[9]
  MIC: 20 µg/mL (≈ 41.4 µM)
[14]
  zone of inhibition at 30 µg/mL: 30 mm
[15]
  LC90: 3.1 µg/mL (≈ 6.41 µM)
  LC50: 1.02 µg/mL (≈ 2.11 µM)
[16]
  inhibition zone (IZ): 30 mm
[4]
  zone of inhibition at 100 µg/mL: 45 mm
[17]
  zone of inhibition at 30 µg/mL: 35 mm
[5]
  zone of inhibition at 100 µg/mL: 40 mm

## COc1cccc(N2C(=S)N(c3cc(C)on3)C(C)=C3C(=O)N(c4cc(C)on4)c4ccccc4C32)c1 (stereo not given)
[1]
  zone of inhibition at 100 µg/mL: 65 mm
[2]
  zone of inhibition at 100 µg/mL: 60 mm
[6]
  MIC: 18 µg/mL (≈ 35 µM)
[10]
  MIC: 13 µg/mL (≈ 25.3 µM)
[7]
  MIC: 11 µg/mL (≈ 21.4 µM)
[11]
  zone of inhibition at 30 µg/mL: 40 mm
[12]
  zone of inhibition at 30 µg/mL: 20 mm
[8]
  MIC: 18 µg/mL (≈ 35 µM)
[3]
  inhibition zone (IZ): 40 mm
[13]
  MIC: 12 µg/mL (≈ 23.4 µM)
[9]
  MIC: 8 µg/mL (≈ 15.6 µM)
[14]
  zone of inhibition at 30 µg/mL: 35 mm
[15]
  LC90: 2.41 µg/mL (≈ 4.69 µM)
  LC50: 1.25 µg/mL (≈ 2.43 µM)
[16]
  inhibition zone (IZ): 28 mm
[4]
  zone of inhibition at 100 µg/mL: 40 mm
[17]
  zone of inhibition at 30 µg/mL: 35 mm
[5]
  zone of inhibition at 100 µg/mL: 55 mm

## CC1=C2C(=O)N(c3cc(C)on3)c3ccccc3C2N(c2ccccc2Cl)C(=S)N1c1cc(C)on1 (stereo not given)
[1]
  zone of inhibition at 100 µg/mL: 50 mm
[2]
  zone of inhibition at 100 µg/mL: 45 mm
[6]
  MIC: 10 µg/mL (≈ 19.3 µM)
[10]
  MIC: 8 µg/mL (≈ 15.4 µM)
[7]
  MIC: 6 µg/mL (≈ 11.6 µM)
[11]
  zone of inhibition at 30 µg/mL: 35 mm
[12]
  zone of inhibition at 30 µg/mL: 30 mm
[8]
  MIC: 8 µg/mL (≈ 15.4 µM)
[3]
  inhibition zone (IZ): 40 mm
[13]
  MIC: 9 µg/mL (≈ 17.4 µM)
[9]
  MIC: 5 µg/mL (≈ 9.65 µM)
[14]
  zone of inhibition at 30 µg/mL: 30 mm
[15]
  LC90: 1 µg/mL (≈ 1.93 µM)
  LC50: 0.98 µg/mL (≈ 1.89 µM)
[16]
  inhibition zone (IZ): 25 mm
[4]
  zone of inhibition at 100 µg/mL: 55 mm
[17]
  zone of inhibition at 30 µg/mL: 40 mm
[5]
  zone of inhibition at 100 µg/mL: 55 mm

## CC1=C2C(=O)N(c3cc(C)on3)c3ccccc3C2N(Cc2ccccc2)C(=S)N1c1cc(C)on1 (stereo not given)
[1]
  zone of inhibition at 100 µg/mL: 59 mm
[2]
  zone of inhibition at 100 µg/mL: 55 mm
[6]
  MIC: 18 µg/mL (≈ 36.2 µM)
[10]
  MIC: 15 µg/mL (≈ 30.1 µM)
[7]
  MIC: 18 µg/mL (≈ 36.2 µM)
[11]
  zone of inhibition at 30 µg/mL: 35 mm
[12]
  zone of inhibition at 30 µg/mL: 31 mm
[8]
  MIC: 22 µg/mL (≈ 44.2 µM)
[13]
  MIC: 25 µg/mL (≈ 50.2 µM)
[9]
  MIC: 20 µg/mL (≈ 40.2 µM)
[14]
  zone of inhibition at 30 µg/mL: 32 mm
[15]
  LC90: 1.59 µg/mL (≈ 3.2 µM)
  LC50: 2.27 µg/mL (≈ 4.56 µM)
[16]
  inhibition zone (IZ): 30 mm
[4]
  zone of inhibition at 100 µg/mL: 61 mm
[17]
  zone of inhibition at 30 µg/mL: 30 mm
[5]
  zone of inhibition at 100 µg/mL: 55 mm

## COc1ccc(N2C(=S)N(c3cc(C)on3)C(C)=C3C(=O)N(c4cc(C)on4)c4ccccc4C32)cc1 (stereo not given)
[1]
  zone of inhibition at 100 µg/mL: 65 mm
[2]
  zone of inhibition at 100 µg/mL: 60 mm
[6]
  MIC: 15 µg/mL (≈ 29.2 µM)
[10]
  MIC: 14 µg/mL (≈ 27.3 µM)
[7]
  MIC: 18 µg/mL (≈ 35 µM)
[11]
  zone of inhibition at 30 µg/mL: 45 mm
[12]
  zone of inhibition at 30 µg/mL: 35 mm
[8]
  MIC: 20 µg/mL (≈ 38.9 µM)
[13]
  MIC: 10 µg/mL (≈ 19.5 µM)
[9]
  MIC: 15 µg/mL (≈ 29.2 µM)
[14]
  zone of inhibition at 30 µg/mL: 35 mm
[15]
  LC90: 3.65 µg/mL (≈ 7.11 µM)
  LC50: 2.09 µg/mL (≈ 4.07 µM)
[16]
  inhibition zone (IZ): 40 mm
[4]
  zone of inhibition at 100 µg/mL: 60 mm
[17]
  zone of inhibition at 30 µg/mL: 40 mm
[5]
  zone of inhibition at 100 µg/mL: 60 mm

## CC1=C2C(=O)N(c3cc(C)on3)c3ccccc3C2N(c2ccc(Br)cc2)C(=S)N1c1cc(C)on1 (stereo not given)
[1]
  zone of inhibition at 100 µg/mL: 45 mm
[2]
  zone of inhibition at 100 µg/mL: 40 mm
[6]
  MIC: 8 µg/mL (≈ 14.2 µM)
[10]
  MIC: 7 µg/mL (≈ 12.4 µM)
[7]
  MIC: 5 µg/mL (≈ 8.89 µM)
[11]
  zone of inhibition at 30 µg/mL: 39 mm
[12]
  zone of inhibition at 30 µg/mL: 40 mm
[8]
  MIC: 6 µg/mL (≈ 10.7 µM)
[3]
  inhibition zone (IZ): 45 mm
[13]
  MIC: 9 µg/mL (≈ 16 µM)
[9]
  MIC: 9 µg/mL (≈ 16 µM)
[14]
  zone of inhibition at 30 µg/mL: 25 mm
[15]
  LC90: 1.8 µg/mL (≈ 3.2 µM)
  LC50: 0.88 µg/mL (≈ 1.56 µM)
[16]
  inhibition zone (IZ): 25 mm
[4]
  zone of inhibition at 100 µg/mL: 50 mm
[17]
  zone of inhibition at 30 µg/mL: 35 mm
[5]
  zone of inhibition at 100 µg/mL: 45 mm

## CC1=C2C(=O)N(c3cc(C)on3)c3ccccc3C2N(c2ccc(Cl)cc2)C(=S)N1c1cc(C)on1 (stereo not given)
[1]
  zone of inhibition at 100 µg/mL: 50 mm
[2]
  zone of inhibition at 100 µg/mL: 45 mm
[6]
  MIC: 15 µg/mL (≈ 29 µM)
[10]
  MIC: 15 µg/mL (≈ 29 µM)
[7]
  MIC: 13 µg/mL (≈ 25.1 µM)
[11]
  zone of inhibition at 30 µg/mL: 40 mm
[12]
  zone of inhibition at 30 µg/mL: 25 mm
[8]
  MIC: 16 µg/mL (≈ 30.9 µM)
[3]
  inhibition zone (IZ): 45 mm
[13]
  MIC: 15 µg/mL (≈ 29 µM)
[9]
  MIC: 20 µg/mL (≈ 38.6 µM)
[14]
  zone of inhibition at 30 µg/mL: 30 mm
[15]
  LC90: 4 µg/mL (≈ 7.72 µM)
  LC50: 1.01 µg/mL (≈ 1.95 µM)
[16]
  inhibition zone (IZ): 30 mm
[4]
  zone of inhibition at 100 µg/mL: 40 mm
[17]
  zone of inhibition at 30 µg/mL: 35 mm
[5]
  zone of inhibition at 100 µg/mL: 50 mm

## CC1=C2C(=O)N(c3cc(C)on3)c3ccccc3C2N(c2ccc(C)cc2)C(=S)N1c1cc(C)on1 (stereo not given)
[1]
  zone of inhibition at 100 µg/mL: 65 mm
[2]
  zone of inhibition at 100 µg/mL: 60 mm
[6]
  MIC: 11 µg/mL (≈ 22.1 µM)
[10]
  MIC: 8 µg/mL (≈ 16.1 µM)
[7]
  MIC: 6 µg/mL (≈ 12.1 µM)
[11]
  zone of inhibition at 30 µg/mL: 45 mm
[12]
  zone of inhibition at 30 µg/mL: 40 mm
[8]
  MIC: 16 µg/mL (≈ 32.2 µM)
[13]
  MIC: 10 µg/mL (≈ 20.1 µM)
[9]
  MIC: 10 µg/mL (≈ 20.1 µM)
[14]
  zone of inhibition at 30 µg/mL: 45 mm
[15]
  LC90: 2.41 µg/mL (≈ 4.84 µM)
  LC50: 0.85 µg/mL (≈ 1.71 µM)
[16]
  inhibition zone (IZ): 40 mm
[4]
  zone of inhibition at 100 µg/mL: 60 mm
[17]
  zone of inhibition at 30 µg/mL: 45 mm
[5]
  zone of inhibition at 100 µg/mL: 65 mm
